In patent US9884063B2, “Amido-substituted azole compounds” (Bayer Pharma Aktiengesellschaft, priority 2014, dated 2018) one finds IC50 data, which are given here for 24 compounds.

One assay concerns the target T1, TNKS2 (Homo sapiens, UniProt Q9H2K2).
T1 sequence (Q9H2K2 1-1166): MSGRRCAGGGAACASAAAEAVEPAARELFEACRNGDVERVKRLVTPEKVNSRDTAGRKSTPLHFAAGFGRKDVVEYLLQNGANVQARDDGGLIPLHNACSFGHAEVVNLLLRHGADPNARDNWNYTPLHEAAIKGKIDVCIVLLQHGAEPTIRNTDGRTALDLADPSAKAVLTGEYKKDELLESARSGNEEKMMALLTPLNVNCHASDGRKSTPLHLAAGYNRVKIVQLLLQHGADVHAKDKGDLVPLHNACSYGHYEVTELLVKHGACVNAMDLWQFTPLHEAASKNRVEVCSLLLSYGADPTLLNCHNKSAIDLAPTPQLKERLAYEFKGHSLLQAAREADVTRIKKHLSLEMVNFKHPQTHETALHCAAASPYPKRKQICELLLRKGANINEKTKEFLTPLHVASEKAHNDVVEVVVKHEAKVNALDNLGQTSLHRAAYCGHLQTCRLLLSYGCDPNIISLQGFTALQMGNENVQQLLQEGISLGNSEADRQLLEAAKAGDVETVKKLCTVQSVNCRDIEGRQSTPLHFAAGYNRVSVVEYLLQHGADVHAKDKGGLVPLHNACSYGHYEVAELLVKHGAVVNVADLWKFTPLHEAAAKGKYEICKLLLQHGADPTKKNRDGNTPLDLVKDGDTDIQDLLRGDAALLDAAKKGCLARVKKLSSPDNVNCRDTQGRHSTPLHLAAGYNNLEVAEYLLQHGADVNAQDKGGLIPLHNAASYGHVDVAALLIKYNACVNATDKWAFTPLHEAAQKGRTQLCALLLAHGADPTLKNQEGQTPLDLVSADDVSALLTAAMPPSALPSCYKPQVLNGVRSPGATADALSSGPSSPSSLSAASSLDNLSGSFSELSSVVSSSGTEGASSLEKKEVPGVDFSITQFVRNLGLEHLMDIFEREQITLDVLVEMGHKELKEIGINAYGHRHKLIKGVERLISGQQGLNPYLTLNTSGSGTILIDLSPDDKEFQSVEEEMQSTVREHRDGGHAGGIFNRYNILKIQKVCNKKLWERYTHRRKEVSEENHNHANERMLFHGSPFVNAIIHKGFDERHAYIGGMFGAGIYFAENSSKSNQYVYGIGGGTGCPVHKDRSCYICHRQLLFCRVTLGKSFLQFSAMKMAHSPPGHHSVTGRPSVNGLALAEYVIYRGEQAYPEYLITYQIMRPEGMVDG
Nature of the assay: Modified TNKS2 Assay 2 (auto-parsylation, [3H]-NAD+ SPA). The following applies: 6 nM TNKS2, 96 well. Type of assay: biochemical.

Assay [1] has as its system wildtype Wnt signaling cascade. In words: HEK293 TOP Assay (Super TopFlash luciferase reporter, Wnt-3a stimulated). Type of assay: cell-based. The settings on record: Homo sapiens, HEK293, 16 h, HEK293 TOP reporter cell line, Wnt-3a at EC50, 16 hours incubation, compound dilution series 50 μM to 15 nM. In a few lines:
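Compounds (50 μM down to 15 nM, 3.16-fold steps, in CAFTY buffer pH 7.4, 2 mM Ca2+, 0.01% BSA) tested in parallel on TOP and FOP HEK293 reporter lines to define selective wildtype Wnt inhibition. Pathway driven by recombinant human Wnt-3a applied at 2500–5 ng/ml in two-fold dilutions.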

For the compound `CCNC(=O)c1nc[nH]c1C(=O)Nc1ccc(NC(=O)c2cnccc2Cl)cc1` [Example 263, N^5-(4-{[(4-chloropyridin-3-yl)carbonyl]amino}phenyl)-N^4-ethyl-1H-imidazole-4,5-dicarboxamide], the results for the half-inhibitory concentration (IC50) (at TNKS2; in assay [1]) were 500 nM and 360 nM, respectively.

In the case of `CCNC(=O)c1nc[nH]c1C(=O)Nc1ccc(NC(=O)c2cc(OC)ccc2Cl)cc1` [Example 264, N^5-{4-[(2-chloro-5-methoxybenzoyl)amino]phenyl}-N^4-ethyl-1H-imidazole-4,5-dicarboxamide], the IC50 was 480 nM against TNKS2 and 1600 nM in assay [1].

Take `C[C@@H]1CCCCN1CCNC(=O)c1[nH]cnc1C(=O)Nc1ccc(NC(=O)c2ccc(F)cc2Cl)cc1` [Example 267, N^4-{4-[(2-chloro-4-fluorobenzoyl)amino]phenyl}-N^5-{2-[(2R)-2-methylpiperidin-1-yl]ethyl}-1H-imidazole-4,5-dicarboxamide]: the IC50 on TNKS2 stood at 3 nM; in assay [1], 20 nM.

With `C[C@@H]1CCCN(CCNC(=O)c2[nH]cnc2C(=O)Nc2ccc(NC(=O)c3ccc(F)cc3Cl)cc2)C1` [Example 278, N^4-{4-[(2-chloro-4-fluorobenzoyl)amino]phenyl}-N^5-{2-[(3R)-3-methylpiperidin-1-yl]ethyl}-1H-imidazole-4,5-dicarboxamide], the concentration for half-maximal inhibition (IC50) at TNKS2 stood at 5 nM; in assay [1], 90 nM.

On to `O=C(Nc1ccc(NC(=O)c2nc[nH]c2C(=O)NCCN2CCC(F)(F)C2)cc1)c1ccc(F)cc1Cl` [Example 279, N^4-{4-[(2-chloro-4-fluorobenzoyl)amino]phenyl}-N^5-[2-(3,3-difluoropyrrolidin-1-yl)ethyl]-1H-imidazole-4,5-dicarboxamide], for which the IC50 against TNKS2 is 20 nM; in assay [1], 910 nM.

In the case of `O=C(Nc1ccc(NC(=O)c2nc[nH]c2C(=O)N[C@H]2CCNC2)cc1)c1ccc(F)cc1Cl` [Example 281, N^4-{4-[(2-chloro-4-fluorobenzoyl)amino]phenyl}-N^5-[(3S)-pyrrolidin-3-yl]-1H-imidazole-4,5-dicarboxamide], the IC50 against TNKS2 amounted to 70 nM; in assay [1], 1200 nM.

On to `NCCNC(=O)c1[nH]cnc1C(=O)Nc1ccc(NC(=O)c2ccc(F)cc2Cl)cc1` [Example 290, N^5-(2-aminoethyl)-N^4-{4-[(2-chloro-4-fluorobenzoyl)amino]phenyl}-1H-imidazole-4,5-dicarboxamide], for which the half-maximal inhibitory concentration (IC50) against TNKS2 came out at 110 nM; in assay [1], 710 nM.

For `O=C(Nc1ccc(NC(=O)c2nc[nH]c2C(=O)NCCN2CCCCC2)cc1OC(F)(F)F)c1ccc(F)cc1Cl` [Example 293, N^4-{4-[(2-chloro-4-fluorobenzoyl)amino]-3-(trifluoromethoxy)phenyl}-N^5-[2-(piperidin-1-yl)ethyl]-1H-imidazole-4,5-dicarboxamide], the results for the IC50 (against TNKS2; in assay [1]) were 110 nM and 570 nM, respectively.

Consider `CC(CN1CCOCC1)NC(=O)c1[nH]cnc1C(=O)Nc1ccc(NC(=O)c2ccc(F)cc2)cc1` (stereo not drawn) [Example 294, N^4-{4-[(4-fluorobenzoyl)amino]phenyl}-N^5-[1-(morpholin-4-yl)propan-2-yl]-1H-imidazole-4,5-dicarboxamide], for which the concentration for half-maximal inhibition (IC50) against TNKS2 stood at 150 nM; in assay [1] it was 1550 nM.

For `CN1CCCC(CNC(=O)c2[nH]cnc2C(=O)Nc2ccc(NC(=O)c3ccc(F)cc3Cl)cc2)C1` (stereo not drawn) [Example 298, N^4-{4-[(2-chloro-4-fluorobenzoyl)amino]phenyl}-N^5-[(1-methylpiperidin-3-yl)methyl]-1H-imidazole-4,5-dicarboxamide], the 50% inhibitory concentration (IC50) against TNKS2 was found to be 60 nM; in assay [1], 300 nM.

In the case of `O=C(Nc1ccc(NC(=O)c2ocnc2C(=O)NCCN2CCCCC2)cc1)c1ccc(F)cc1Cl` [Example 303, N^5-{4-[(2-chloro-4-fluorobenzoyl)amino]phenyl}-N^4-[2-(piperidin-1-yl)ethyl]-1,3-oxazole-4,5-dicarboxamide], the concentration for half-maximal inhibition (IC50) against TNKS2 was 10 nM; in assay [1] it was 140 nM.

On to `CNC(=O)c1nc[nH]c1C(=O)Nc1ccc(NC(=O)c2cc(Cl)ccc2Cl)cc1` [Example 309, N^5-{4-[(2,5-dichlorobenzoyl)amino]phenyl}-N^4-methyl-1H-imidazole-4,5-dicarboxamide], for which the IC50 is 340 nM at TNKS2 and 240 nM in assay [1].

For the compound `CNC(=O)c1nc[nH]c1C(=O)Nc1ccc(NC(=O)c2cc(Br)ccc2Cl)cc1` [Example 313, N^5-{4-[(5-bromo-2-chlorobenzoyl)amino]phenyl}-N^4-methyl-1H-imidazole-4,5-dicarboxamide], the figures for the half-inhibitory concentration (IC50) (on TNKS2; in assay [1]) were 1000 nM and 410 nM, respectively.

Take `CNC(=O)c1nc[nH]c1C(=O)Nc1ccc(NC(=O)c2ccc(C#N)cc2)cc1` [Example 322, N^5-{4-[(4-cyanobenzoyl)amino]phenyl}-N^4-methyl-1H-imidazole-4,5-dicarboxamide]: the IC50 was 950 nM against TNKS2 and 2300 nM in assay [1].

In the case of `CNC(=O)c1nc[nH]c1C(=O)Nc1ccc(NC(=O)c2ccc(Cl)cc2F)cc1` [Example 333, N^5-{4-[(4-chloro-2-fluorobenzoyl)amino]phenyl}-N^4-methyl-1H-imidazole-4,5-dicarboxamide], the IC50 was 580 nM at TNKS2 and 950 nM in assay [1].

`CNC(=O)c1nc[nH]c1C(=O)Nc1ccc(NC(=O)c2ccc(Br)cc2Cl)cc1` [Example 334, N^5-{4-[(4-bromo-2-chlorobenzoyl)amino]phenyl}-N^4-methyl-1H-imidazole-4,5-dicarboxamide]: the IC50 stood at 30 nM against TNKS2 and 860 nM in assay [1].

Consider `CNC(=O)c1nc[nH]c1C(=O)Nc1ccc(NC(=O)c2ccc(F)c(Cl)c2)cc1` [Example 340, N^5-{4-[(3-chloro-4-fluorobenzoyl)amino]phenyl}-N^4-methyl-1H-imidazole-4,5-dicarboxamide], for which the half-inhibitory concentration (IC50) was above 10000 nM on TNKS2 and 3850 nM in assay [1].

`CNC(=O)c1nc[nH]c1C(=O)Nc1ccc(NC(=O)c2c(F)cc(F)cc2F)cc1` [Example 342, N^4-methyl-N^5-{4-[(2,4,6-trifluorobenzoyl)amino]phenyl}-1H-imidazole-4,5-dicarboxamide]: the figures for the half-maximal inhibitory concentration (IC50) (against TNKS2; in assay [1]) were 540 nM and 800 nM, respectively.

As to `CNC(=O)c1nc[nH]c1C(=O)Nc1ccc(NC(=O)c2c(C)cccc2Cl)cc1` [Example 343, N^5-{4-[(2-chloro-6-methylbenzoyl)amino]phenyl}-N^4-methyl-1H-imidazole-4,5-dicarboxamide], the IC50 came to 1700 nM at TNKS2 and 1450 nM in assay [1].

Take `CNC(=O)c1nc[nH]c1C(=O)Nc1ccc(NC(=O)c2ccc(C)c(Cl)c2)cc1` [Example 344, N^5-{4-[(3-chloro-4-methylbenzoyl)amino]phenyl}-N^4-methyl-1H-imidazole-4,5-dicarboxamide]: the figures for the half-inhibitory concentration (IC50) (against TNKS2; in assay [1]) were above 10000 nM and 27000 nM, respectively.

In the case of `CNC(=O)c1nc[nH]c1C(=O)Nc1ccc(NC(=O)c2cc(C#N)ccc2F)cc1` [Example 349, N^5-{4-[(5-cyano-2-fluorobenzoyl)amino]phenyl}-N^4-methyl-1H-imidazole-4,5-dicarboxamide], the IC50 amounted to 2200 nM at TNKS2 and 720 nM in assay [1].

For `CNC(=O)c1nc[nH]c1C(=O)Nc1ccc(NC(=O)c2cc(C(F)(F)F)ccc2Cl)cc1` [Example 352, N^5-(4-{[2-chloro-5-(trifluoromethyl)benzoyl]amino}phenyl)-N^4-methyl-1H-imidazole-4,5-dicarboxamide], the IC50 on TNKS2 was 1300 nM; in assay [1], 710 nM.

Turning to `CNC(=O)c1nc[nH]c1C(=O)Nc1ccc(NC(=O)c2cccc(Cl)n2)cc1` [Example 353, N^5-(4-{[(6-chloropyridin-2-yl)carbonyl]amino}phenyl)-N^4-methyl-1H-imidazole-4,5-dicarboxamide], the IC50 against TNKS2 is above 10000 nM; in assay [1], 50000 nM.

`CNC(=O)c1nc[nH]c1C(=O)Nc1ccc(NC(=O)c2ncccc2C)cc1` [Example 356, N^4-methyl-N^5-(4-{[(3-methylpyridin-2-yl)carbonyl]amino}phenyl)-1H-imidazole-4,5-dicarboxamide]: the concentration for half-maximal inhibition (IC50) stood at 940 nM on TNKS2 and 720 nM in assay [1].
